Test results published in PubChem BioAssay AID832 (PCMD, 2007).
Inconclusive results are not listed. Active and inactive are the calls of the source. No rule for the calls is given here.

target: Cathepsin G (Homo sapiens) (UniProt P08311); experiment: IC50 of CTSG protease blockers – biochemical, confirmation, dose response (AID 832); conditions: purified cathepsin G enzyme activity, signal read-out
Sequence (P08311 21-244 limits assumed): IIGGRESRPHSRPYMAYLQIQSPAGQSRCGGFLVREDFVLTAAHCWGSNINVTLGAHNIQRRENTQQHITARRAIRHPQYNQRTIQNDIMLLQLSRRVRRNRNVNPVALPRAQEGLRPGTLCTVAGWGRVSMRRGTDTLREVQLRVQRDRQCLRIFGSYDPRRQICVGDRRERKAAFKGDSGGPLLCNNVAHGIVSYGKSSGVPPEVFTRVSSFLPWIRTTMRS

IC50, inactive:
O=C1CCCC(O)=C1C=NCCc1ccccc1 > 50 µM
COC(=O)c1sc(N2C(=O)C(O)=C(C(=O)c3ccc(C)o3)C2c2ccc(F)cc2)nc1C (stereo not drawn) > 50 µM
COc1ccc(C2C(C(=O)c3cccs3)=C(O)C(=O)N2c2nncs2)cc1 (stereo not drawn) > 50 µM
